1 molecule from patent US8828456B2, “Method of external skin application of composition containing red pine root extract” (Amorepacific Corporation, priority 2009, dated 2014) can be followed below.

This assay in a line: Free radical removal activity (DPPH method). It counts as biochemical. As for the experimental part:
Specifically, each of the extracts obtained in Example 1 and Comparative Example 1 was diluted in ethanol to varying concentrations (0, 50, 100, 200, 300 and 400 μg/mL), and 10 μl of each dilution was added to each well of a 96-well plate. A solution of 5 mM DPPH in ethanol was added to each well to a total volume of 200 μl. The resulting solution was incubated at 37° C. for 30 minutes, and then measured at 520 nm using an ELISA reader (DI Biotech, Korea). Based on the measured absorbance, free radical removal activity was calculated according to the following Equation 1. As a positive control, vitamin C known to have excellent antioxidant activity was used. Radical removal activity (%)=absorbance of control-absorbance of sample/absorbance of control×100 Equation 1
A general note: DPPH is a stable violet radical that fades when it is reduced.

On to `O=C1O[C@H]([C@@H](O)CO)C(O)=C1O` [Vitamin C, vitamin C], for which the “Radical Removal Activity (%)” value by setting is: (50 μg/mL) 30%; (100 μg/mL) 90%; (200 μg/mL) 91%; (300 μg/mL) 90%; (400 μg/mL) 90%.
